Results on 1 compound are retold here after ChEMBL document CHEMBL5252536, “Discovery of VU0467485/AZ13713945: An M4 PAM Evaluated as a Preclinical Candidate for the Treatment of Schizophrenia” (ACS Med Chem Lett, 2017).

Values after ≈ are worked out from the molar mass of the structure shown. Active and inactive are the calls of the source. The calls are words filed in the database; no cut-off is given here. A value given as a limit tells only on which side of the number the result lay.

Data set [1] is described as follows: Plasma protein binding in cynomolgus monkey assessed as unbound fraction incubated for 4 hrs by LC/MS/MS analysis. Format: ADME, cell-free, Macaca fascicularis.
For data set [2], the target named is T1, Muscarinic acetylcholine receptor M4 (Homo sapiens) (UniProt P08173).
T1 sequence (whole entry): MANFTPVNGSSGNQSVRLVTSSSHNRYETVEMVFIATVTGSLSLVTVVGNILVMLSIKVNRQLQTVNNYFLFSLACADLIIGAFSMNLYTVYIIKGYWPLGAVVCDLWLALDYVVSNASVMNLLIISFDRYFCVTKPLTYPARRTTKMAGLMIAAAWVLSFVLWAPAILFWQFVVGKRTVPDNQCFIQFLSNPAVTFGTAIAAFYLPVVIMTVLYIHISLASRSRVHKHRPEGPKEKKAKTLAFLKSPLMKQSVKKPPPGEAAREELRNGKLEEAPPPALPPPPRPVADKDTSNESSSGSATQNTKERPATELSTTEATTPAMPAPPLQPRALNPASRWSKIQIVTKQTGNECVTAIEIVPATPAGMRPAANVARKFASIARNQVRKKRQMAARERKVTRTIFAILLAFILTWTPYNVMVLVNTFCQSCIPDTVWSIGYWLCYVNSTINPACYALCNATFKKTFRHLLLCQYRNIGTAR
Put plainly: Positive allosteric modulator activity at human M4 receptor expressed in CHO cells co-expressing Gqi5 in absence of EC20 concentration of acetylcholine by calcium mobilization assay. Format: cell-based.

Data set [3] is described as follows: AUC (0 to infinity) in Beagle dog at 3 mg/kg,po by LC-MS/MS analysis. Format: ADME, organism-based, Canis lupus familiaris. Also on record: dose 3 mg/kg, route po. As to conditions: in vivo.
The target of another data set is Cytochrome P450 2C9 (Homo sapiens, UniProt P11712). Put plainly: Inhibition of CYP2C9 in human liver microsomes using diclofenac as substrate incubated for 15 mins in presence of NADPH by LC/MS/MS analysis. The format is ADME, Microsome.
Data set [4] in a line: Elimination half life in Beagle dog at 3 mg/kg,po or 1 mg/kg,iv by LC-MS/MS analysis. As to conditions: in vivo, read-out: beta t1/2 (converted). Format: ADME, organism-based, Canis lupus familiaris.
The nature of data set [5]: Terminal brain concentration in rat model of amphetamine-induced hyperlocomotion activity at 1 to 10 mg/kg, po measured after 1.5 hrs. As to conditions: dose 1-10 mg/kg, read-out: Ct. Format: ADME, organism-based.
Data set [6] in a line: Elimination half life in Cynomolgous monkey at 0.2 mg/kg,iv by LC-MS/MS analysis. To be noted: cynomolgus monkey, in vivo, read-out: beta t1/2 (converted).
The next data set deals with Cytochrome P450 2C19 (Homo sapiens, UniProt P33261). The data set can be described thus: […] of human CYP2C19 mediated drug metabolism incubated for 5 mins followed by NADPH addition measured after 1 hr by LC-UV/MS analysis relative to control. Format: ADME. To be noted: recombinant enzyme, 1.083 h, time 65 min.
Data set [7] in a line: Tmax in Sprague-Dawley rat at 3 mg/kg,po by LC-MS/MS analysis. Format: ADME, organism-based. To be noted: in vivo.
For the next data set, the system named is CHO. The data set can be described thus: Positive allosteric modulator activity at dog M4 receptor expressed in CHO cells co-expressing Gqi5 assessed as maximal response to ACh by calcium mobilization assay relative to contol. Format: cell-based. To be noted: Canis lupus familiaris, filed as positive allosteric modulator. (In general: Calcium flux is commonly read through the fluorescence of an indicator in the cells.)

Data set [8] in a line: Aqueous solubility of compound at pH 7.4. To be noted: buffer. Format: physicochemical.
The next data set has as its target T2, Cytochrome P450 2B6 (Homo sapiens, UniProt P20813).
T2 sequence (P20813 whole entry): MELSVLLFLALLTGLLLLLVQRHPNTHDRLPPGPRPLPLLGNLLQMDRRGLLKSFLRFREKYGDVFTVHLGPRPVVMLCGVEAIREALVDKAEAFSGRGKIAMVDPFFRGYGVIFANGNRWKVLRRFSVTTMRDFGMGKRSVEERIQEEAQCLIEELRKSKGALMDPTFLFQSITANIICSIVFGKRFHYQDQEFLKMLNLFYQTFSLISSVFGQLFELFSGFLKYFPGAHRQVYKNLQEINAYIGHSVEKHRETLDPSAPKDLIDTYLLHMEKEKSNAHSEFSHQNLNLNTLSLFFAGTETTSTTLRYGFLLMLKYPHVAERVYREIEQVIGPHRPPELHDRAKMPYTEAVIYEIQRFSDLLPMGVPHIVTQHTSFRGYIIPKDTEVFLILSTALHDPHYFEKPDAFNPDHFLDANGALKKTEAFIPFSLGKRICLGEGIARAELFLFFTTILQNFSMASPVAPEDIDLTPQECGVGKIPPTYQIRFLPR
The data set can be described thus: Activation of CYP2B6 in human hepatocyte using bupropion as substrate preincubated for 5 days followed by substrate addition and measured after 1 hr by LC-MS/MS analysis. Format: ADME, cell-based.

A short description of data set [9]: Positive allosteric modulator activity at cynomolgus monkey M4 receptor expressed in CHO cells co-expressing Gqi5 in presence of EC20 concentration of acetylcholine by calcium mobilization assay. Format: cell-based. As to conditions: Macaca fascicularis.
The nature of data set [10]: AUC (0 to infinity) in Sprague-Dawley rat at 3 mg/kg,po by LC-MS/MS analysis. To be noted: in vivo. The format is ADME, organism-based. Also on record: dose 3 mg/kg, route po.
Data set [11] has as its target T3, Muscarinic acetylcholine receptor M2 (Homo sapiens, UniProt P08172).
T3 sequence (P08172 whole entry): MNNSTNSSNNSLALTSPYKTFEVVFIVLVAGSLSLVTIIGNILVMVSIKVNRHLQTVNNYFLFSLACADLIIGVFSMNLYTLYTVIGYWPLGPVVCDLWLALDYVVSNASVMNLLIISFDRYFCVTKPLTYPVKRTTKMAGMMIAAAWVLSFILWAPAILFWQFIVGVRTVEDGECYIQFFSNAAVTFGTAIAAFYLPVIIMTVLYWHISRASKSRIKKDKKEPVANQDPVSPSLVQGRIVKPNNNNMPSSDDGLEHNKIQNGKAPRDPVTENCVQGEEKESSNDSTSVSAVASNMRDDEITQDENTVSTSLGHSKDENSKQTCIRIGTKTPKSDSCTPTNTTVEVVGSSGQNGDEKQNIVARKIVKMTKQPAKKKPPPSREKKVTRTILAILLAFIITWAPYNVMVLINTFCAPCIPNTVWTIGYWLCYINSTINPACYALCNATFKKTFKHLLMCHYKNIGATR
Put plainly: Positive allosteric modulator activity at human M2 receptor expressed in CHO cells co-expressing Gqi5 assessed as maximal response to ACh by calcium mobilization assay. The format is cell-based.

Cytochrome P450 2C19, sequence (P33261 whole entry): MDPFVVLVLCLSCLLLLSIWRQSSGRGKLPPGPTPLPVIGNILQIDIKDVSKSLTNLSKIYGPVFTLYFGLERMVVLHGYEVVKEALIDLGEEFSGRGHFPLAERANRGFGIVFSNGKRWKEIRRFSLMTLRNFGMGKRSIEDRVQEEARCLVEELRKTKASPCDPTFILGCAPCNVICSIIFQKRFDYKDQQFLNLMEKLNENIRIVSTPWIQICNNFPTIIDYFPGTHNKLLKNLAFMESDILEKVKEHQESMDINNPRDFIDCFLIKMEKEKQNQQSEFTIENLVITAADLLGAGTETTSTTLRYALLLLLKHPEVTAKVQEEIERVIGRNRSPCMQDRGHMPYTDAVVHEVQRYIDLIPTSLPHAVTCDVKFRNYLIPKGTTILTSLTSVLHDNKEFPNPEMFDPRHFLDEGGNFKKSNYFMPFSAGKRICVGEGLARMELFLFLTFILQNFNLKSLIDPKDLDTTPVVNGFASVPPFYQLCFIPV
Cytochrome P450 2C9, sequence (P11712 whole entry): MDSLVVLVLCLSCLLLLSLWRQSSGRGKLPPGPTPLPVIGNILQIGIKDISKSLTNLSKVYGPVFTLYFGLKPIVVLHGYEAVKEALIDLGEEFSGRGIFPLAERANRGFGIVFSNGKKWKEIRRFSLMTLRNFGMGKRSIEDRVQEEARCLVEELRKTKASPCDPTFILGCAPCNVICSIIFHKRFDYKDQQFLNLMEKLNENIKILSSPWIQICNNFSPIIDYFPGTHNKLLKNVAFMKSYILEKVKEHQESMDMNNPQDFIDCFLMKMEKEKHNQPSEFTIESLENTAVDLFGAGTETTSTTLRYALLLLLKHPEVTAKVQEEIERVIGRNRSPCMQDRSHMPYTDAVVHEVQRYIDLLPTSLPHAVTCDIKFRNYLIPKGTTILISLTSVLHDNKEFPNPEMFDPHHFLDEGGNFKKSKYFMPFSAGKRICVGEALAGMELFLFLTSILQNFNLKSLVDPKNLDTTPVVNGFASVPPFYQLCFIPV

The fraction unbound is free concentration divided by total concentration. In general, AUC(0-inf) refers to total exposure, with the tail of the curve extrapolated. In general, IC50 refers to the point on the concentration scale where inhibition reaches its midpoint. As usually defined, the Tmax is the time from dosing to the highest level. For orientation: solubility means the concentration that dissolves in the medium under given conditions. Usually EC50 stands for the concentration at which the effect is half-maximal. Consider `COc1ccc(CNC(=O)c2sc3nnc(C)c(C)c3c2N)cc1F`, for which, in data set [1], the fraction unbound at 4 h came out at 0.091. For the same compound, the outcome in data set [2] was inactive. Also, the AUC(0-inf) in data set [3] turned out to be 0.59 µM·h; in data set [10], 3.8 µM·h. On Cytochrome P450 2C9, the 50% inhibitory concentration (IC50) was > 30 µM. The half-life was 1.3 h in data set [4] and 0.48 h in data set [6]. For the same compound, the concentration at 1.5 h in [5] came out at 560 nM. Further, the Activity at Cytochrome P450 2C19 turned out to be 31.2%; in the data set on CHO it was 49%. The Tmax in [7] came out at 1.5 h. Besides, in data set [8], the concentration in solution (solubility) was 2.4 µM (≈ 0.865 µg/mL). Also, the concentration for a half-maximal effect (EC50) on Cytochrome P450 2B6 was > 50 µM; in data set [9], 0.102 µM; in data set [11], > 30 µM.
